# From US20040023264A1, “Method for determining the peptide hormone activities or the steroid hormone activities of a material or substance mixture” (priority 2000, published 2004)
# Experiments:
# glucocorticoid receptor [1] = biological target: T1, glucocorticoid receptor (Rattus norvegicus, UniProt P06536); test: Glucocorticoid activity bioassay, CC1 cells cotransfected with GRE2-TATA-Luc and glucocorticoid receptor expression plasmid; type: cell-based; set-up: expressed in transfected cells; host or cells: CC1 cells (permanent rat liver cell line), transiently cotransfected with pSTC-rGR and GRE2-TATA-Luc; settings: for corticosteroid (glucocorticoid) activity of corticosterone:BSA derivatives / glucocorticoid activity (luciferase induction): CC1 cells; for corticosteroid (glucocorticoid) activity of corticosterone:BSA derivatives: each 200 nM, various induction times; for glucocorticoid activity (luciferase induction): different concentrations, induction time 24 h
# T1 sequence (P06536 1-795): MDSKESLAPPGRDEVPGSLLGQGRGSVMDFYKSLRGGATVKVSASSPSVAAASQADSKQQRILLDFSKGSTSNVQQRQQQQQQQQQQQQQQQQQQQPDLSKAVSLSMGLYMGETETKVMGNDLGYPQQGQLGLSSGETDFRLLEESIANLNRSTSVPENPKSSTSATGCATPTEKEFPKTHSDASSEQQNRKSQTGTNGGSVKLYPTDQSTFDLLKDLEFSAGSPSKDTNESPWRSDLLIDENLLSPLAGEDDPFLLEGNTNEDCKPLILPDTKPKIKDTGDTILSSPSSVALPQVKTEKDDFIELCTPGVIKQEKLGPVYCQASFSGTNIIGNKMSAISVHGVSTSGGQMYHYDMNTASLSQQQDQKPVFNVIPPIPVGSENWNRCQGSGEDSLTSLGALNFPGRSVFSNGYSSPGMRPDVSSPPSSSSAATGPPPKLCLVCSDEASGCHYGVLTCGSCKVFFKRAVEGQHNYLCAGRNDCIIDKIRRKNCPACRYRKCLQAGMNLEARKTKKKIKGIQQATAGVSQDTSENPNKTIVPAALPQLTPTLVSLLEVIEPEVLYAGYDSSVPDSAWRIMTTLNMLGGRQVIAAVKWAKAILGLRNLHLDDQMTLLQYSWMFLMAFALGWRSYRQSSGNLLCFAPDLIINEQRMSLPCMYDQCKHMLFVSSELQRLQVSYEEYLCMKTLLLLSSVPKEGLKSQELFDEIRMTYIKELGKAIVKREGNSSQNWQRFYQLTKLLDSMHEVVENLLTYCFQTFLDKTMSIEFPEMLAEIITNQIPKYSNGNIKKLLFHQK
# Protocol: These cell lines contain endogenous glucocorticoid receptors. Here, steroid concentration—in this case corticosterone concentration—determines the extent of glucocorticoid activity. […] Induction time: 24 h (see also example 12).
# (§1) Thus, the following examples always concern transit ntly cotransfected CC1or MH 3924 cell.
# glucocorticoid receptor [2] = biological target: T1, glucocorticoid receptor
# Protocol: These cell lines contain endogenous glucocorticoid receptors. Here, steroid concentration—in this case corticosterone concentration—determines the extent of glucocorticoid activity. […]
# as §1
# Determination was carried out as in example 7, however, with MH 3924 cells.
# androgen receptors (AR) = test: Androgen induced luciferase activity in transfected human genital skin fibroblasts (GSF); type: cell-based; settings: mibolerone 2 nM, 24 h incubation; three Luc constructs; strength depends on origin of fibroblasts
# Source text: FIG. 1: Androgen induced luciferase activity in human genital skin fibroblasts (GSF) in culture transfected with three different luciferase gen constructs of different androgen sensitivity (“Lu ”): PRE2-Tk-Luc, MMTV-Luc, GRE2-TATA-Luc
# The only steroid hormone receptors present in GSF are androgen receptors (AR). Mibolerone, which is used in this experiment, is a synthetic androgen with anabolic effectiveness. […] Obviously, GE2-TATA-Luc is the most sensitive reporter gene construct of the ones used here (for comparison, see also example 10 with a MMTV promotor reporter gene construct as well as FIG. 10).
# androgen receptor = androgen receptor (Homo sapiens, UniProt P10275); settings: HeLa cells, induction time 24 h
# Sequence of androgen receptor (P10275 whole entry): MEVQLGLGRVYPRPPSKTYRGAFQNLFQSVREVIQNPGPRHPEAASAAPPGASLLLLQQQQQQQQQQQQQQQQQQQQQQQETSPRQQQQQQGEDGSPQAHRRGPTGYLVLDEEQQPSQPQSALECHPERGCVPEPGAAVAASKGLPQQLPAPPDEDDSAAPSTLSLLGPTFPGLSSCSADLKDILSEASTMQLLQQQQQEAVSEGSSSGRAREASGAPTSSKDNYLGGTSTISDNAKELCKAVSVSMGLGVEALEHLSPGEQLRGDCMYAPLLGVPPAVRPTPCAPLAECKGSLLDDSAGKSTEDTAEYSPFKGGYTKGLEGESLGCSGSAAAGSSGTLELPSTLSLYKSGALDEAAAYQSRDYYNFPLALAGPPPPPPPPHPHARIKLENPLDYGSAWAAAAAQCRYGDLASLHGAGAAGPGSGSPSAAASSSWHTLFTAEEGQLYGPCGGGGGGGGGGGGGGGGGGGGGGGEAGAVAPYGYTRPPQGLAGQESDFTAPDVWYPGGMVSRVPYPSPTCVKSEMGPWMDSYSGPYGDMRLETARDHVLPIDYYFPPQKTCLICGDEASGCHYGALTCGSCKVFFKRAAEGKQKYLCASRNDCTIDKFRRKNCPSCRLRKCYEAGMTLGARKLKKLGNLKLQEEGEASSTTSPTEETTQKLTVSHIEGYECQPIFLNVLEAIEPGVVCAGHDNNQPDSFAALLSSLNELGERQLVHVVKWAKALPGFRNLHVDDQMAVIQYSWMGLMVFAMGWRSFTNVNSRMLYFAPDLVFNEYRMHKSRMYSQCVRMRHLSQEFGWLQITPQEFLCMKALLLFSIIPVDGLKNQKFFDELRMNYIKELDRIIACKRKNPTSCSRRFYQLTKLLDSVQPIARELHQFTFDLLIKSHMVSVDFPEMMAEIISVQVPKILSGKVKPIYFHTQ
# Source text: Transfection method in this experiment was the DOTAP method (Boehringer, Mannheim, Germany).
# This androgen receptor free cell line was transiently cotransfected with GRE2-TATA-Luc and a recombinant androgen receptor expression plasmid.
# glucocorticoid receptor [3] = biological target: T1, glucocorticoid receptor; settings: CC1 cells
compound,measurement,setting,value
3-CMO-corticosterone:BSA [3:BSA],corticosteroid (glucocorticoid) activity of corticosterone:BSA derivatives,glucocorticoid receptor [1],weak
21-hemisuccinat-corticosterone:BSA,concentration at which luciferase induction is easily measurable,"glucocorticoid receptor [2]; MH 3924 cells, short term induction of 10 to 30 min (FIG. 4a)",≤ 50 nM
same,corticosteroid (glucocorticoid) activity of corticosterone:BSA derivatives,glucocorticoid receptor [1],strong
same,luciferase induction by corticosterone derivative bound to BSA (glucocorticoid activity),glucocorticoid receptor [1]; cotransfected CC1 cells,luciferase is induced
C[C@@H]1CC2=CC(=O)CC[C@@H]2[C@H]2CC[C@@]3(C)[C@@H](CC[C@]3(C)O)[C@@H]21 [Mibolerone],luciferase activity induced by androgen,androgen receptors (AR),luciferase activity of varying strength
"C[C@]1(O)CC[C@H]2[C@@H]3CCC4=CC(=O)CCC4=C3C=C[C@@]21C [R1881, methyltrienolone]",concentration at which hormone activity (anabolic potency) can already be detected,androgen receptor,10 pM
"CC#C[C@]1(O)CC[C@H]2[C@@H]3CCC4=CC(=O)CCC4=C3[C@@H](c3ccc(N(C)C)cc3)C[C@@]21C [RU 38486, mifepristone]",blocking of luciferase inducing effect of corticosterone and 21-hemisuccinat-corticosterone:BSA (glucocorticoid antagonism),glucocorticoid receptor [3],extensively blocked
"C[C@]12CCC(=O)C=C1CC[C@@H]1[C@@H]2CC[C@@]2(C)[C@H]1CC[C@]2(O)C(=O)CO [cortexolone, 17α-, 21-dihydroxy-progesterone]",glucocorticoid activity (luciferase induction),glucocorticoid receptor [1],significant glucocorticoid activity
C[C@]12C[C@H](O)[C@H]3[C@@H](CCC4=CC(=O)CC[C@@]43C)[C@@H]1CC[C@@H]2C(=O)CO [corticosterone],response of MH 3924 cells compared with response of CC1 cells,glucocorticoid receptor [2]; as in example 7 (24 h),distinctly more sensitive
same,glucocorticoid activity (luciferase induction),glucocorticoid receptor [1],very active
